Source: US20050202010A1, “Method of treatment and bioassay involving macrophage migration inhibitory factor (MIF) as cardiac-derived myocardial depressant factor” (priority 2003, published 2005)

Columns and labels:
LPS stimulated monocytes = details: cited from earlier work
[1] = system: wild type mice challenged with LPS; assay: Serum MIF levels (ELISA) after LPS challenge, Enbrel pre-treatment; assay type: in vivo, mouse; details: wild type mice pre-treated (60 minutes) with Enbrel, LPS 4 mg/kg
Protocol: (§1) Mice were injected intraperitoneally with 4 mg/kg E. coli 0111:B4 LPS (Sigma-Aldrich Corp., St. Louis, Mo.) and sacrificed by CO2 asphyxiation and subsequent cervical dislocation. Uninjected mice were used as controls. The two anti-MIF antibodies (III.D.9 and XIV.15.5, gift of Cytokine PharmaSciences, Inc., King of Prussia, Pa.) and their isotype control (HB-49, gift from Cytokine PharmaSciences, Inc.) were injected (100 μg in […]) intraperitoneally 90 minutes before the LPS challenge in the echocardiogram studies. […]
Determination of serum MIF levels. Sera from six mice were assayed for mouse MIF using the Chemikine™ Rat/Mouse macrophage inhibitory factor (MIF) EIA kit (Chemicon International, Inc., Temecula, Calif.) according to the manufacturer's instructions. Briefly, 5 μl of standards, samples, or reaction buffer (blank) were added to each well in duplicate. Diluted MIF-HRP antibody conjugate was added to each well (100 μl) and allowed to incubate for 2 hours at room temperature. Wells were then washed five times, and TMB substrate (100 μl) was allowed to incubate in the dark for 30 minutes at room temperature. The stop reagent was added to each well, gently mixed, and the ELISA was read on an ELISA plate reader (EL 312e Microplate Reader, Bio-Tek Instruments, Winooski, Vt.) at 450 nm (630 nm background) within 30 minutes of completion of the assay. […]

[2] = system: wild type mice challenged with LPS; assay: Tissue MIF release (western, immunohistochemistry) after LPS challenge, Enbrel pre-treatment; assay type: in vivo, mouse
Protocol: as §1, with “Louis,” for “Mice were injected intraperitoneally with 4 mg/kg E. coli 0111:B4 LPS (Sigma-Aldrich Corp., St. Louis,”
Protein Extraction and Western Blotting. […] Protein concentration was quantified using the Bio-Rad Protein Assay (Hercules, Calif.) and 50 μg of protein diluted in Laemmeli sample buffer (Bio-Rad) was added in a 1:1 ratio to a final volume of 10 μl and resolved on a 12% SDS polyacrylamide gel under reducing conditions. Prestained SDS-PAGE standards (Kaleidoscope Broad range, Bio-Rad Laboratories, Inc., Hercules, Calif.) were run (10 μl/lane) with each gel in order to determine the approximate M.W. of detected bands. […] The membrane was then developed for 5 minutes with 5 ml of ECL reagents (SuperSignal West Pico, Pierce, Rockford, Ill.), and the resulting chemiluminescent reaction was detected by Kodak X-OMAT AR Film (Eastman Kodak Co., Rochester, N.Y.). […]

Row | Molecule | effect on MIF secretion (LPS stimulated monocytes) | also measured
1 | C[C@H]1CCC/C=C/[C@@H]2C[C@H](O)C[C@H]2[C@H](O)/C=C/C(=O)O1 [brefelding A] | do not inhibit the secretion of MIF | –
2 | COc1ccc(Cl)cc1C(=O)NCCc1ccc(S(=O)(=O)NC(=O)NC2CCCCC2)cc1 [glyburide] | MIF secretion did not occur | –
3 | CC[C@@]1([C@@H]2O[C@@H]([C@H]3O[C@@](O)(CO)[C@H](C)C[C@@H]3C)C[C@@H]2C)CC[C@H]([C@]2(C)CC[C@]3(C[C@H](O)[C@@H](C)[C@@H]([C@@H](C)[C@@H](OC)[C@H](C)C(=O)O)O3)O2)O1 [monensin] | do not inhibit the secretion of MIF | –
4 | CCCN(CCC)S(=O)(=O)c1ccc(C(=O)O)cc1 [probenicide] | MIF secretion did not occur | –
5 | Enbrel® | – | Maximum serum MIF levels [1]: ~2.3 fold baseline; time of maximum serum MIF levels [1]: 24 h; tissue release of MIF after LPS challenge ([2]; Enbrel given just immediately prior to or after LPS instead of 90 minutes prior (data not shown)): occurred sporatically; release of MIF from cardiac, liver and spleen tissue after LPS challenge ([2]; wild type mice pre-treated with Enbrel, western and immunohistochemistry): did not occur at any time
